Among the data in ChEMBL document CHEMBL1781894, “Dibenzocyclooctadiene lignans with antineurodegenerative potential from Kadsura ananosma” (2011) are Activity and viability values, retold here.

The test system of one test is SH-SY5Y. Nature of the test: Neuroprotective activity against H2O2-induced neurotoxicity in human SH-SY5Y cells assessed as cell survival at 10 uM incubated for 2 hrs before H2O2 challenge measured after 24 hrs by MTT assay. It is filed as functional.
Details: not given
For orientation: Formazan colour is commonly taken as a measure of viable cells.
Turning to `COc1cc2c(c(OC)c1OC)-c1c(cc3c(c1OC)OCO3)[C@H](OC(C)=O)[C@H](C)[C@H](C)C2` (stereo in doubt; 16) [KADSURIN], the Activity is 49.7%.

The test is the same for the next values; noted with them: Homo sapiens, SH-SY5Y; read-out: Activity.
Regarding `COc1cc2c(c(OC)c1OC)-c1c(cc3c(c1OC)OCO3)[C@H](OC(C)=O)[C@H](C)[C@H](C)C2` (stereo in doubt; 1) [KADSURIN], the viability at 10 µM was 51.7%.
Still for that read-out and setting: the result for `COc1cc2c(c(OC)c1OC)-c1c(cc3c(c1OC)OCO3)[C@@H](OC(C)=O)[C@@H](C)[C@H](C)C2=O` [ANANOLIGNAN B] reads 69.6%; that for `COc1cc2c(c(OC)c1OC)-c1c(cc3c(c1OC)OCO3)[C@H](O)[C@H](C)[C@H](C)[C@@H]2O` [ANANOLIGNAN C], 59.6%.
Same read-out and setting: the result for `COc1cc2c(c(OC)c1OC)-c1c(cc3c(c1OC)OCO3)[C@H](OC(C)=O)[C@H](C)[C@H](C)[C@@H]2O` [ANANOLIGNAN D] reads 63%; that for `COc1cc2c(c(OC)c1OC)-c1c(cc3c(c1OC)OCO3)[C@H](O)[C@H](C)[C@H](C)[C@H]2OC(C)=O` [ANANOLIGNAN E], 56.3%.
On the same count and under the same terms, the result for `COc1cc2c(c(OC)c1OC)-c1c(cc3c(c1OC)OCO3)[C@H](OC(C)=O)[C@H](C)[C@H](C)[C@H]2OC(C)=O` [ANANOLIGNAN F] reads 88.6%; that for `CCC(=O)O[C@H]1c2cc3c(c(OC)c2-c2c(cc(OC)c(OC)c2OC)[C@H](OC(C)=O)[C@@H](C)[C@H]1C)OCO3` [ANANOLIGNAN G], 56.7%.
With `COc1cc2c(c(OC)c1OC)-c1c(cc3c(c1OC)OCO3)[C@H](OC(=O)C(C)C)[C@H](C)[C@H](C)[C@H]2OC(C)=O` [ANANOLIGNAN H], the viability at 10 µM was 63.9%.
On the same count and under the same terms, the result for `CCCC(=O)O[C@H]1c2cc3c(c(OC)c2-c2c(cc(OC)c(OC)c2OC)[C@H](OC(C)=O)[C@@H](C)[C@H]1C)OCO3` [ANANOLIGNAN I] reads 60.1%.
Take `CCC(C)C(=O)O[C@H]1c2cc3c(c(OC)c2-c2c(cc(OC)c(OC)c2OC)[C@H](OC(C)=O)[C@@H](C)[C@H]1C)OCO3` (stereo partly drawn) [ANANOLIGNAN J]: the viability at 10 µM is 55.1%.
Consider `COc1cc2c(c(OC)c1OC)-c1c(cc3c(c1OC)OCO3)[C@H](OC(=O)c1ccccc1)[C@H](C)[C@H](C)[C@H]2OC(C)=O` [ANANOLIGNAN K], for which the viability at 10 µM is 71.4%.
The same measure, in the same setting: the result for `C/C=C(\C)C(=O)O[C@H]1c2cc(OC)c(OC)c(OC)c2-c2c(cc3c(c2OC)OCO3)[C@H](OC(C)=O)[C@H](C)[C@@H]1C` [ANANOLIGNAN L] reads 66.9%.
On the same count and under the same terms, the result for `C/C=C(/C)C(=O)O[C@H]1c2cc(OC)c(OC)c(OC)c2-c2c(cc3c(c2OC)OCO3)[C@H](OC(=O)C(C)C)[C@H](C)[C@@H]1C` [ANANOLIGNAN M] reads 64.5%; that for `C/C=C(/C)C(=O)O[C@H]1c2cc(OC)c(OC)c(OC)c2-c2c(cc3c(c2OC)OCO3)[C@H](OC(=O)CCC)[C@H](C)[C@@H]1C` [ANANOLIGNAN N], 66.8%; that for `C/C=C(\C)C(=O)O[C@H]1c2cc(OC)c(OC)c(OC)c2-c2c(cc3c(c2OC)OCO3)[C@H](O)[C@H](C)[C@@H]1C` [ANANOSIN A], 68.2%.
Same read-out and setting: the result for `C/C=C(/C)C(=O)O[C@H]1c2cc(OC)c(OC)c(OC)c2-c2c(cc3c(c2OC)OCO3)[C@H](OC(C)=O)[C@H](C)[C@@H]1C` [INTERIOTHERIN C] reads 53.6%; that for `COc1cc2c(c(OC)c1OC)-c1c(cc3c(c1OC)OCO3)[C@H](O)[C@H](C)[C@H](C)C2` [ISOGOMISIN O], 56.7%.
As to `COc1cc2c(c(OC)c1OC)-c1c(cc3c(c1OC)OCO3)[C@H](O)[C@@H](C)[C@@H](C)C2` [YUNNANKADSURIN B], the viability at 10 µM came to 60.1%.

Another test deals with SH-SY5Y. Nature of the test: Neuroprotective activity against H2O2-induced neurotoxicity in human SH-SY5Y cells assessed as cell survival at 1 uM incubated for 2 hrs before H2O2 challenge measured after 24 hrs by MTT assay. The test is classed as functional.
Details: not given
As to `COc1cc2c(c(OC)c1OC)-c1c(cc3c(c1OC)OCO3)[C@H](OC(C)=O)[C@H](C)[C@H](C)C2` (stereo in doubt; 16) [KADSURIN], the Activity is reported as 56.3%.

Still in this test, the particulars now being: Homo sapiens, SH-SY5Y; read-out: Activity.
`COc1cc2c(c(OC)c1OC)-c1c(cc3c(c1OC)OCO3)[C@H](OC(C)=O)[C@H](C)[C@H](C)C2` (stereo in doubt; 1) [KADSURIN]: the viability at 1 µM was determined as 58.9%.
Still for that read-out and setting: the result for `COc1cc2c(c(OC)c1OC)-c1c(cc3c(c1OC)OCO3)[C@@H](OC(C)=O)[C@@H](C)[C@H](C)C2=O` [ANANOLIGNAN B] reads 59.7%; that for `COc1cc2c(c(OC)c1OC)-c1c(cc3c(c1OC)OCO3)[C@H](O)[C@H](C)[C@H](C)[C@@H]2O` [ANANOLIGNAN C], 57.7%; that for `COc1cc2c(c(OC)c1OC)-c1c(cc3c(c1OC)OCO3)[C@H](OC(C)=O)[C@H](C)[C@H](C)[C@@H]2O` [ANANOLIGNAN D], 64.3%.
Still for that read-out and setting: the result for `COc1cc2c(c(OC)c1OC)-c1c(cc3c(c1OC)OCO3)[C@H](O)[C@H](C)[C@H](C)[C@H]2OC(C)=O` [ANANOLIGNAN E] reads 62%; that for `COc1cc2c(c(OC)c1OC)-c1c(cc3c(c1OC)OCO3)[C@H](OC(C)=O)[C@H](C)[C@H](C)[C@H]2OC(C)=O` [ANANOLIGNAN F], 90%; that for `CCC(=O)O[C@H]1c2cc3c(c(OC)c2-c2c(cc(OC)c(OC)c2OC)[C@H](OC(C)=O)[C@@H](C)[C@H]1C)OCO3` [ANANOLIGNAN G], 57.7%.
With `COc1cc2c(c(OC)c1OC)-c1c(cc3c(c1OC)OCO3)[C@H](OC(=O)C(C)C)[C@H](C)[C@H](C)[C@H]2OC(C)=O` [ANANOLIGNAN H], the viability at 1 µM was found to be 64.1%.
On the same count and under the same terms, the result for `CCCC(=O)O[C@H]1c2cc3c(c(OC)c2-c2c(cc(OC)c(OC)c2OC)[C@H](OC(C)=O)[C@@H](C)[C@H]1C)OCO3` [ANANOLIGNAN I] reads 61.1%.
As to `CCC(C)C(=O)O[C@H]1c2cc3c(c(OC)c2-c2c(cc(OC)c(OC)c2OC)[C@H](OC(C)=O)[C@@H](C)[C@H]1C)OCO3` (stereo partly drawn) [ANANOLIGNAN J], the viability at 1 µM was 52.2%.
Consider `COc1cc2c(c(OC)c1OC)-c1c(cc3c(c1OC)OCO3)[C@H](OC(=O)c1ccccc1)[C@H](C)[C@H](C)[C@H]2OC(C)=O` [ANANOLIGNAN K], for which the viability at 1 µM was 68.9%.
Still for that read-out and setting: the result for `C/C=C(\C)C(=O)O[C@H]1c2cc(OC)c(OC)c(OC)c2-c2c(cc3c(c2OC)OCO3)[C@H](OC(C)=O)[C@H](C)[C@@H]1C` [ANANOLIGNAN L] reads 79.2%; that for `C/C=C(/C)C(=O)O[C@H]1c2cc(OC)c(OC)c(OC)c2-c2c(cc3c(c2OC)OCO3)[C@H](OC(=O)C(C)C)[C@H](C)[C@@H]1C` [ANANOLIGNAN M], 74%; that for `C/C=C(/C)C(=O)O[C@H]1c2cc(OC)c(OC)c(OC)c2-c2c(cc3c(c2OC)OCO3)[C@H](OC(=O)CCC)[C@H](C)[C@@H]1C` [ANANOLIGNAN N], 75%.
For the compound `C/C=C(\C)C(=O)O[C@H]1c2cc(OC)c(OC)c(OC)c2-c2c(cc3c(c2OC)OCO3)[C@H](O)[C@H](C)[C@@H]1C` [ANANOSIN A], the viability at 1 µM was determined as 66.4%.
Same read-out and setting: the result for `C/C=C(/C)C(=O)O[C@H]1c2cc(OC)c(OC)c(OC)c2-c2c(cc3c(c2OC)OCO3)[C@H](OC(C)=O)[C@H](C)[C@@H]1C` [INTERIOTHERIN C] reads 45.7%; that for `COc1cc2c(c(OC)c1OC)-c1c(cc3c(c1OC)OCO3)[C@H](O)[C@H](C)[C@H](C)C2` [ISOGOMISIN O], 56.9%.
Same read-out and setting: the result for `COc1cc2c(c(OC)c1OC)-c1c(cc3c(c1OC)OCO3)[C@H](O)[C@@H](C)[C@@H](C)C2` [YUNNANKADSURIN B] reads 41.7%.
